In patent US7109341B2, “Therapeutic amides” (Wayne State University, priority 2002, dated 2006):
“And” between values parts separate entries of the source, which are not always exact repeats. Equal entries are not always repeated. Where two headings read alike, the source gives them in different places.

How the values were obtained:
[1] = system: Mammary Adenocarcinoma 17/ADR; assay: Evaluation against early stage Mammary Adenocarcinoma 17/ADR, C3H/He females (Table 3); assay type: in vivo; details: IV
[2] = system: Pancreatic Ductal Adenocarcinoma 03; details: footnote, no dose given; cited from earlier work;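 for T/C: mice carrying bilateral subcutaneous tumors, with tumor weight estimated from two-dimensional caliper readings taken twice a week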;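 for activity rating: mice carrying bilateral subcutaneous tumors, with tumor weight estimated from two-dimensional caliper readings taken twice a week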
[3] = system: Mammary Adenocarcinoma 16/C; details: Cage 4, IV, qd 1–5, total 240 mg/kg
Excerpt: Table 7. […] The animal was then re-implanted with Mam16/C/71.

[4] = system: Pancreatic Ductal Adenocarcinoma 03; assay: Evaluation against early stage Pancreatic Ductal Adenocarcinoma 03, IP route, C57 females (Table 9); assay type: in vivo
Description: The IP route was used for two reasons. […] This is approximately 40% of the dose given IV with the racemic mix (60 mg/kg, see Table 7).

[5] = Water solubility noted on drug preparation for injection; assay type: physicochemical; details: white solid + 3% EtOH + 1% POE + 0.25% NaHCO3 + saline, pH = 9 → 7 with 1N HCl
Description: (§1) Compounds as their sodium salts were prepared in a 1% sodium bicarbonate solution, H2O or phosphate buffered saline (PBS), with pH adjusted to 7.0 to 7.5 with HCl, and administered intravenously (IV) or orally (PO), at injection volumes of 0.2 mL per injection.

[6] = system: Mammary Adenocarcinoma 16/C
Description: (§2) Pancreatic ductal adenocarcinoma-03, mammary adenocarcinoma-16/C, mammary adenocarcinoma-17/Adr, and human melanoma LOX were used in the studies. Tumors were maintained in the mouse strain of origin (C57B1/6 for Panc-03 and C3H for the mammary tumors). Balb/c SCID mice (B and T cell deficient) were used for tumor maintenance and chemotherapy trials involving the human melanoma LOX. Tumors were transplanted into the appropriate F1 hybrid (B6D2F1=C57B 1/6 female× DBA/2 male) or the strain of origin for the chemotherapy trials. Individual mouse body weights for each experiment were within 5 grams, and all mice were over 17 grams at the start of therapy. The mice were supplied food and water ad libitum.
(§3) Animals were pooled, implanted subcutaneously with 30 to 60 mg tumor fragments by a 12 gauge trocar on day 0, and again pooled before unselective distribution to the various treatment and control groups. For early stage treatment, chemotherapy was started within 1 to 3 days after tumor implantation while the number of cells was relatively small (10^7 to 10^8 cells). For upstaged or advanced staged trials, the tumors were allowed to grow for five or more days before treatment was started. Tumors were measured with a caliper twice weekly. […] Tumor weights are estimated from two-dimensional measurements:
(§4) Tumor weight (in mg)=(a×b^2)/2, where a and b are the tumor length and width in (mm), respectively.
a) Tumor growth delay (T−C value), where T is the median time (in days) required for the treatment group tumors to reach a predetermined size (e.g., 1,000 mg), and C is the median time (in days) for the control group tumors to reach the same size. Tumor-free survivors were are excluded from these calculations (cures are tabulated separately).
(§5) b) Calculation of tumor cell kill for subcutaneously (SC) growing tumors. […] The conversion of the T−C values to log10 cell kill is possible because the Td of tumors re-growing post treatment (Rx) approximates the Td values of the tumors in untreated control mice.
(§6) It should be noted that an activity rating of +++ to ++++ is needed to effect partial regression (PR) or complete regression (CR) of 100 to 300 mg size masses of most transplanted solid tumors of mice. Thus, an activity rating of + or ++ would not be scored as active by usual clinical criteria. A PR is a reduction in tumor mass to less than 50% of pretreatment size. A CR is a reduction in tumor mass to below palpable size (i.e., reduction to zero detectable mass).
(§7) The T/C value in percent is an indication of anti-tumor effectiveness: A T/C=0% means no tumor growth. A T/C=100% means no anti-tumor activity, i.e., the treated and control tumors grew equally. […] A T/C value<10% is considered to indicate highly significant anti-tumor activity, and is the level used by NCI to justify a clinical trial if toxicity, formulation, and certain other requirements are met (termed DN-2 level activity).
as §1

[7] = system: Pancreatic Ductal Adenocarcinoma 03; details: for Comments (Active/Inactive) / Comments (activity rating) / Drug Death / Log Cell Kill / Median Tumor Burden in mg on d17 / T-C / T/C % / Time to 1000 mg / Tumor Free on 148: BDF1 males;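 for T/C: mice carrying bilateral subcutaneous tumors, with tumor weight estimated from two-dimensional caliper readings taken twice a week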;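 for activity rating: mice carrying bilateral subcutaneous tumors, with tumor weight estimated from two-dimensional caliper readings taken twice a week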
Description: as §2, §3, §4
a) Tumor growth delay (T−C value), where T is the median time (in days) required for the treatment group tumors to reach a predetermined size (e.g., 1,000 mg), and C is the median time (in days) for the control group tumors to reach the same size. Tumor-free survivors were are excluded from these calculations (cures are tabulated separately). This value is an important criterion of anti-tumor effectiveness because it allows the quantification of tumor cell kill.
as §5, §6, §7, §1
Thus, for this test, all compounds initially were to be given IP, in an attempt to identify a suitable alternate route of administration.

[8] = system: Pancreatic Adenocarcinoma 03; assay: Evaluation against early stage Pancreatic Adenocarcinoma 03 in BDF1 male mice (Table 1); assay type: in vivo, mouse; details: Cage 8; IV; QD 3–5; total 180 mg/kg
[9] = system: Pancreatic Ductal Adenocarcinoma #03; assay: Evaluation against early stage Pancreatic Ductal Adenocarcinoma #03, BD1 female mice (Table 2); details: Cage 2; IV; QD3–6, 10; total 300 mg/kg
[10] = system: Pancreatic Ductal Adenocarcinoma 03; assay: Evaluation against early stage Pancreatic Ductal Adenocarcinoma 03 in female BDF1 mice (Table 4); assay type: in vivo, mouse; details: IV
Excerpt: The higher dose requirement for compound 14e may be a disadvantage over compound 11b (Cage 14).

[11] = IV; total dose; cited from earlier work
[12] = Cage 2, 7.5 mg/kg/inj days 1, 7, total 15 mg/kg
[13] = Cage 5, Qd3–7, total 157.5 mg/kg
[14] = Cage 2, IV, Q2Dx8, total 480 mg/kg
[15] = Cage 11, IP, 80 mg/kg/inj days 3, 5, 11, 13, 15, total 400 mg/kg
[16] = Cage 12, IP, 50 mg/kg/inj Q2d×7 from day 3, total 350 mg/kg
[17] = IP, Q2d: 3–15, total dosage 350 mg/kg
[18] = IP, d3, 5, 11, 13, 15, total dosage 400 mg/kg
[19] = Cage 4, 56 mg/kg/injection QD-1–5 and 10, total 336 mg/kg
[20] = Cage 5, 57 mg/kg/injection QD 3–9, total 399 mg/kg
[21] = Cage 6, 38 mg/kg/injection QD 3–9, total 266 mg/kg

Structure (SMILES): COc1cccc2c1C(=O)c1c(O)c3c(c(O)c1C2=O)C[C@@](O)(C(=O)CO)C[C@@H]3O[C@H]1C[C@H](N)[C@H](O)[C@H](C)O1 [Adriamycin, reference compound]
- % Body Wt Loss at Nadir [1, 12]: −1.4%
- % T/C mass [1, 12]: 90%
- Activity Rating [1, 12]: inactive
- Day of Nadir [1, 12]: 7 days
- Drug Deaths [1, 12]: 0/5
- Growth Delay [1, 12]: 0 days
- Log Kill [1, 12]: none
- Median Tumor Mass on Day 9 (Range) [1, 12]: 1086
- Tumor Free day-21 [1, 12]: 0/5
- sensitivity of this tumor to standard agents (activity rating) [2]: It is nicely sensitive to Adriamycin (+++ activity). (2.0–2.8)

Structure (SMILES): CC(Oc1ccc(Oc2ccc3ccc(Br)cc3n2)cc1)C(=O)O [Compound 11c (R), 2-{4-{(7-bromo-2-quinolinyl)oxy}phenoxy}propionic acid, reference compound]
- Day of Wt. Loss Nadir [3]: 9 days
- Drug Death (day of death) [3]: One animal died and 1/5
- Log Cell Kill [3]: 1.8
- Mean Body Wt. Loss in g/mouse [3]: −6.0 g/mouse
- Median Tumor Burden in mg on d 9 (range) [3]: 0 mg
- Percent Body Weight Loss [3]: −29.4%
- T-C [3]: 7.2 days
- T/C % [3]: 0%
- Time to 1,000 mg in days (range) [3]: 15.2 days
- Tumor Free on d 161 [3]: 0/5
- day of body weight recovery [3]: ≤ 13 days
- toxicity observations [3]: diarrhea
- body weight loss day 6 ([3]; day 6): −17.5%
- Comments (activity rating) ([4]; Cage 4, Qd3–7, total 260 mg/kg): LD20
- Day of Wt. Loss Nadir ([4]; Cage 4, Qd3–7, total 260 mg/kg): 10 days
- Drug Death (day of death) ([4]; Cage 4, Qd3–7, total 260 mg/kg): One drug death and 1/5
- Log Cell Kill ([4]; Cage 4, Qd3–7, total 260 mg/kg): 1.5
- Mean Body Wt. Loss in g/mouse ([4]; Cage 4, Qd3–7, total 260 mg/kg): −3.2 g/mouse
- Median Tumor Burden in mg on d14 (range) ([4]; Cage 4, Qd3–7, total 260 mg/kg): 126 mg
- Percent Body Weight Loss ([4]; Cage 4, Qd3–7, total 260 mg/kg): −16.7%
- T-C ([4]; Cage 4, Qd3–7, total 260 mg/kg): 10.5 days
- T/C % ([4]; Cage 4, Qd3–7, total 260 mg/kg): 12.6%
- Time to 1000 mg in days (range) ([4]; Cage 4, Qd3–7, total 260 mg/kg): 24.5 days
- Tumor Free on d31 ([4]; Cage 4, Qd3–7, total 260 mg/kg): 0/5
- day of full body weight recovery ([4]; Cage 4, Qd3–7, total 260 mg/kg): ≤ 17 days
- Day of Wt. Loss Nadir [4, 13]: 9 days
- Drug Death (day of death) [4, 13]: 0/5
- Log Cell Kill [4, 13]: 1.58
- Mean Body Wt. Loss in g/mouse [4, 13]: −0.0 g/mouse
- Median Tumor Burden in mg on d14 (range) [4, 13]: 260 mg
- T-C [4, 13]: 11 days
- T/C % [4, 13]: 26%
- Time to 1000 mg in days (range) [4, 13]: 25 days
- Tumor Free on d31 [4, 13]: 0/5
- Preparation: state of the injection preparation [5]: Compound 11c (R): white solid + 3% EtOH + 1% POE + 0.25% NaHCO3 + saline → solution (pH = 9 → 7 with 1N HCl); 0.5 ml/mouse/inj, IP.
- Drug Death (day of death) [6, 14]: 0/5
- Log Cell Kill [6, 14]: 4.8
- Median Tumor Burden in mg on day 7 (range) [6, 14]: 0 mg
- T-C [6, 14]: 16 days
- T/C % [6, 14]: 0%
- Time to 1000 mg in days (range) [6, 14]: 22 days
- Tumor Free on d28 [6, 14]: no cures and 0/5
- Day of Wt. Loss Nadir ([6]; mouse, in vivo): 14 days
- Percent Body Weight Loss ([6]; mouse, in vivo): −4.3%
- Activity Rating [7, 15]: ++++ (Highly active >2.8)
- T/C [7, 15]: 0%
- log cell kill [7, 15]: 3.3
- tumor free on day 148 [7, 15]: 1/5 and One mouse remained tumor free
- Activity Rating [7, 16]: ++ (1.3–1.9)
- T/C [7, 16]: 3%
- log kill [7, 16]: 1.4
- Comments (Active/Inactive) [7, 17]: Active
- Comments (activity rating) [7, 17]: (++) (1.3–1.9)
- Drug Death [7, 17]: 0/5
- Log Cell Kill [7, 17]: 1.4
- Median Tumor Burden in mg on d17 [7, 17]: 63 mg
- T-C [7, 17]: 10 days
- T/C % [7, 17]: 3%
- Time to 1000 mg [7, 17]: 25 days
- Tumor Free on 148 [7, 17]: 0/5
- Comments (Active/Inactive) [7, 18]: Active
- Comments (activity rating) [7, 18]: (++++) (Highly active >2.8)
- Drug Death [7, 18]: 0/5
- Log Cell Kill [7, 18]: 3.3
- Median Tumor Burden in mg on d17 [7, 18]: 0 mg
- T-C [7, 18]: 23 days
- T/C % [7, 18]: 0%
- Time to 1000 mg [7, 18]: 38 days
- Tumor Free on 148 [7, 18]: 1/5
- Day of Wt. Loss Nadir ([7]; mouse, in vivo): 9 days and 8 days
- day of full weight recovery ([7]; mouse, in vivo): 16 days and 11 days
- day of weight loss nadir ([7]; mouse, in vivo): 9 days and 8 days

Structure (SMILES): CC(Oc1ccc(Oc2cnc3ccc(Cl)cc3n2)cc1)C(=O)O (racemic) [XK469, reference compound]
- Day of Wt. Loss Nadir [8]: 8 days
- Drug Deaths (days of death) [8]: no drug deaths and 0/5
- Log Kill [8]: 1.43 and 1.4
- Mean Body Wt. Loss in g/mouse [8]: −3.6 g/mouse
- Median tumor burden in mg on day 14 (range) [8]: 189 mg
- Percent Body Wt. Loss [8]: −15.5%
- T-C [8]: 9 days
- T/C % [8]: 11%
- Time to 1000 mg days (range) [8]: 20 days
- Tumor Free on day 21 [8]: 0/5
- day of body weight recovery [8]: 13 days
- Activity Rating [9]: ++++ (Highly active >2.8)
- Day of Wt. Loss Nadir [9]: 8 days
- Drug Deaths (day of death) [9]: 0/5
- Growth Delay [9]: 28.1 days
- Log Cell Kill [9]: 3.3
- Mean Body Wt. Loss (g/mouse) [9]: −3.2 g/mouse
- Median Tumor Burden in mg on d18 (Range) [9]: 64 mg
- T/C % [9]: 4%
- Time in days to 1000 mg (range) [9]: 41.1 days
- Tumor Free on d 154 [9]: 1/5
- day of full body weight recovery [9]: ~12 days
- % Body Wt Loss at Nadir [1, 19]: −7.1%
- % T/C mass [1, 19]: 9%
- Activity Rating [1, 19]: ++++ (Highly active >2.8)
- Day of Nadir [1, 19]: 8 days
- Drug Deaths [1, 19]: 0/5
- Growth Delay [1, 19]: 15.5 days
- Log Kill [1, 19]: 4.2
- Median Tumor Mass on Day 9 (Range) [1, 19]: 108
- Tumor Free day-21 [1, 19]: 0/5
- % Body Wt Loss at Nadir [10, 20]: −6.7%
- % T/C mass [10, 20]: 4.1%
- Activity Rating [10, 20]: ++ (1.3–1.9)
- Day of Nadir [10, 20]: 8 days
- Drug Deaths [10, 20]: 0/5
- Growth Delay [10, 20]: 11.5 days
- Log Kill [10, 20]: 1.7
- Median Tumor Mass on Day 14 (Range) [10, 20]: 63
- Tumor Free day-37 [10, 20]: 0/5
- % Body Wt Loss at Nadir [10, 21]: −6.7%
- % T/C mass [10, 21]: 8.3%
- Activity Rating [10, 21]: ++ (1.3–1.9)
- Day of Nadir [10, 21]: 5 days
- Drug Deaths [10, 21]: 0/5
- Growth Delay [10, 21]: 9.5 days
- Log Kill [10, 21]: 1.4
- Median Tumor Mass on Day 14 (Range) [10, 21]: 126
- Tumor Free day-37 [10, 21]: 0/5
- MTD (historical) [11]: 450 to 480 mg/kg

Structure (SMILES): CC[C@]1(O)C[C@@H]2CN(CCc3c([nH]c4ccccc34)[C@@](C(=O)OC)(c3cc4c(cc3OC)N(C)[C@H]3[C@@](O)(C(=O)OC)[C@H](OC(C)=O)[C@]5(CC)C=CCN6CC[C@]43[C@@H]65)C2)C1 [Vinblastine]
- sensitivity of this tumor to standard agents (activity rating) [2]: It is insensitive to Vinblastine.

Structure (SMILES): O=c1[nH]cc(F)c(=O)[nH]1 [Compound 5-FU, 5-FU]
- sensitivity of this tumor to standard agents (activity rating) [2]: It is modestly responsive to 5-FU (+ activity). (0.7–1.2)

Structure (SMILES): CC(=O)O[C@H]1C(=O)[C@@]2(C)[C@H]([C@H](OC(=O)c3ccccc3)[C@]3(O)C[C@H](OC(=O)[C@H](O)[C@@H](NC(=O)c4ccccc4)c4ccccc4)C(C)=C1C3(C)C)[C@]1(OC(C)=O)CO[C@@H]1C[C@@H]2O [Taxol]
- sensitivity of this tumor to standard agents (activity rating) [2]: This tumor is highly sensitive to Taxol (++++ activity rating). (Highly active >2.8)
